Measured values: US12599599B2, “Anti-inflammatory, anti-cancer, and anti-angiogenic compounds, pharmaceutical compositions, and methods of making and using thereof” (MEDICON PHARMACEUTICALS, INC., priority 2017, dated 2026)
Values belong to the molecule of their own block, whether it stands above or below them.

Assays:
[1] = Ocular pharmacokinetics and biodistribution after eye drops; format: in vivo, New Zealand rabbits; design: unit not given here; conditions: rabbit, 20% eye drops
Procedure: The pharmacokinetics and biodistribution of compounds 1, 2, and 5 in the eye of rabbits were determined. Each of these compounds was dissolved in phosphate buffered saline (PBS) and used as eye drops. The eye drops were sterilized before application to rabbits by filtration through a 0.2 μm membrane. […] The eyes were harvested and eye tissues and the lacrimal glands were dissected, homogenized and the test compounds were extracted by acetonitrile and analyzed by HPLC, as described under Compound Synthesis described herein. Compounds 1 and 2 were detected at 328 nm, and compound 5 at 260 nm. […] All three compounds can unexpectedly, readily, and rapidly reach the posterior chamber of the eye.

[2] = tested on: oxygen-induced retinopathy; assay: Mouse model of oxygen-induced retinopathy; format: in vivo, C57BL/6 mice; conditions: 10% w/v eye drops 5 times daily, P12 to P17
Procedure: C57BL/6 mice were reared in 75±2% oxygen air starting on postnatal day 7 (P7) and moved into room air on P12, when they were injected intravitreally with 1 μl of 1% compound 6 solution or vehicle. On P17, the pups were euthanized, both eyes were enucleated and fixed with 4% paraformaldehyde (PFA). Following several intermediate steps, the retina was existed and fixed further with 4% PFA overnight. After appropriate washings, the retina was incubated with 10 μg/ml of FITC-conjugated anti-lectin antibody overnight and retina flat-mounts were prepared on glass slides and evaluated by fluorescence microscopy. The areas of the avascular, neovascular and whole retina were determined using ImageJ software.
In another study, the same mouse model of oxygen-induced retinopathy described above was used. In this study, mice were treated daily with an aqueous solution of compound 2 (pH=4.6, osmolarity=282 mOsm; concentration=10% w/v) from postnatal day 12 to day 17. Compound 2 was administered as one eye drop per eye every 2 hours during the day time for a total of 5 administrations daily. At the end of the study, mice were euthanized and their retinas dissected and studied by immunofluorescence using an antibody against lectin I, isolectin B4 (Vector Laboratories) and evaluated as above.

HCT116 colon cancer = assay: 24 hr growth inhibition of cell line; format: cell-based; conditions: Homo sapiens, HCT-116, 24 h
Procedure: (§1) The therapeutic efficacy of compounds 2, 5, and 6 was assessed in human and murine cell lines of varied tissue origin, and their 24 hr 50% inhibitory concentration was determined by following standard methodologies. Typical results are shown in the Table 5, indicating a broad anticancer effect.

RAW264 murine macrophage = assay: 24 hr growth inhibition of cell line; format: cell-based; conditions: Mus musculus, RAW264.7, 24 h
Procedure: as §1

AGS gastric cancer = assay: 24 hr growth inhibition of cell line; format: cell-based; conditions: Homo sapiens
Procedure: as §1

A549 lung cancer = assay: 24 hr growth inhibition of cell line; format: cell-based; conditions: Homo sapiens
Procedure: as §1

[3] = Biodistribution in human eyes removed from deceased donors; format: in vitro ADME; conditions: human eye, 10% (w/v) solution, then 1 h incubation
Procedure: Compound 6 3% (formulated in polyethylene glycol 155; Tween 80% 1%; Kolliphor EL 10%, made to 100% with normal saline; pH 7.2) was injected iv as a single dose of 30 mg/kg. Its retina levels were 4.9 μM and 1 μM at 1 h and 2 h, respectively (the corresponding sclera levels were similar, 3.2 μM and 2.0 μM). When compound 6 was given ip (in corn oil) as a single dose of 100 mg/kg its retina levels became detectable at 3 h (3.2 μM) and remained at 2.8 μM at 4 h and 6 h. Similarly, after its single topical administration, compound 6 3% (formulated in vitamin E TPGS 16%, mannitol 3.2% boric acid 1.2% and polyquad 0.005%, pH 7.2) produced retinal levels of 2.1 μM at 4 h. The biodistribution of compound 2 in human eyes that were recently removed from deceased donors and kept on ice until used within hours was also evaluated. In this study, compound 2 was dissolved in pure water, its pH was adjusted to 4.8±0.1 and its osmolarity to 290 mOsm. The final concentration of compound 2 was 10% (w/v).
The anterior surface of each was brought into contact with the above solution of compound 2 at 37° C.; the solution level was about 3 mm above the cornea edge. After 1 minute or 10 minutes the eyes were rinsed thoroughly with PBS, incubated for 1 h, and dissected to harvest the retina, choroid, aqueous humor, ciliary body, iris and cornea, which ere assayed by HPLC. As shown in the below table, compound 2 did reach the posterior segment of the eye.

SKOV-3 ovarian cancer = assay: 24 hr growth inhibition of cell line; format: cell-based; conditions: Homo sapiens, SK-OV-3, 24 h
Procedure: as §1
Ovarian cancer cells were studied in greater detail using the following ovarian cancer cell lines: SKOV-3, OVCAR3, A2780 (and two cell lines derived from it, A2870cis that is resistant to cisplatin, and A2870ADR that is resistant to doxorubicin (Adriamycin)), and HEY (sensitive to paclitaxel (Taxol), and its derivative HEY-T30 that is Taxol-resistant). […]

A2780 xenografts = assay: Subcutaneous xenografts in nude mice, platinum sensitive; format: in vivo; conditions: compound 5 15 mg/kg/day six days a week ip; cis-platinum 5.5 mg/kg one time a week ip
Procedure: (§2) To determine whether compound 5 is efficacious against chemotherapy-resistant ovarian cancer, three pairs of sensitive and resistant human ovarian cancer cell lines were grown as subcutaneous xenografts in nude mice and treated as summarized in FIG. 10. These cell lines were: A2780, sensitive to both cis-platinum and Adriamycin (doxorubicin); A2780cis, resistant to cis-platinum; A2780ADR, resistant to Adriamycin: HEY, sensitive to Taxol; HEY-T30, resistant to Taxol. The treatments administered were: vehicle control; compound 5, 15 mg/kg/day six days a week, ip; cis-platinum 5.5 mg/kg, one time a week ip; Adriamycin 3 mg/kg twice a week ip; and Taxol 20 mg/kg twice a week ip.

A2780cis xenografts = assay: Subcutaneous xenografts in nude mice, cisplatin resistant; format: in vivo; conditions: compound 5 15 mg/kg/day six days a week ip; cis-platinum 5.5 mg/kg one time a week ip
Procedure: Compound 6 was also efficacious against chemotherapy-resistant ovarian cancer. […] The effect of compound 6 in cisplatin resistant (A2780cis) and doxorubicin (Adriamycin) resistant (A2780ADR) tumors was studied. Briefly, each of these cell lines was subcutaneously inoculated into athymic nude mice and when the tumor size reached 100-200 mm^3, compound 6 150 mg/kg/day or its vehicle were given i.p. After 11 days of treatment, for the cisplatin-resistant tumors the tumor volume of the vehicle group was 2388±127 mm^3 and for compound 6 group 1032±108 mm^3 (mean±SEM; P<0.02); while for the doxorubicin-resistant tumors these values were: vehicle group=1369±337 mm^3 and compound 6 group=396±182 mm^3 (P<0.02).
as §2

HEY-T30 xenografts = assay: Synergy with cyclophosphamide, Taxol resistant subcutaneous xenografts; format: in vivo, nude mice; conditions: day 21; compound 5 10 mg/kg/day six days a week ip; cyclophosphamide 10 mg/kg six days a week orally; or both
[4] = tested on: Ras palmitoylation in A2780 and A2780cis ovarian cancer cells; assay: Ras palmitoylation (resin capture, immunoblot); format: cell-based, human
Procedure: FIGS. 18A-18B illustrate the effect of compounds 5 and 6 on K-Ras. FIG. 18A: Compound 6 suppressed of K-Ras activation. Cells with mutant K-Ras were treated with compound 6 1.5×IC50 for the respective time periods. K-Ras activity was determined by Ras pull-down (Thermo Scientific; following vendor instructions). K-Ras activation is suppressed 37% at 1 hr and 88% at 2 hrs compared to respective controls. FIG. 18B: Compound 5 suppressed the palmitoylation of Ras in A2780 and A2780cis (resistant to cisplatin) ovarian cancer cells. Palmitoylation is detected by removing S-palmitate groups from proteins, creating new free thiols (where the palmitic acid group used to be) and capturing the previously S-palmitoylated proteins on a resin, using a commercial kit (Badrilla, Leeds, UK). Ras was detected in the eluate by immunoblot.
This effect may be particularly useful in types of cancer characterized by K-Ras mutation such as, for example, pancreatic, lung and ovarian cancer. FIG. 18A illustrates the inhibition of K-Ras activation by compound 6. […] This property of compound 5 is not shared for example by compound 6 or phosphosulindac.

- Drug level in Choroid ([1]; 1 hr): 4.1
- Drug level in Conjunctiva ([1]; 1 hr): 71.6
- Drug level in Cornea ([1]; 1 hr): 61.8
- Drug level in Iris ([1]; 1 hr): 6.9
- Drug level in Lens ([1]; 1 hr): 20.2
- Drug level in Retina ([1]; 1 hr): 7.5
- Drug level in Sclera ([1]; 1 hr): 10.1
- Drug level in Vitreous ([1]; 1 hr): 0.9
- Drug level in Choroid ([1]; 3 hr): 2.1
- Drug level in Conjunctiva ([1]; 3 hr): 52.5
- Drug level in Cornea ([1]; 3 hr): 16.2
- Drug level in Iris ([1]; 3 hr): 7.6
- Drug level in Lens ([1]; 3 hr): 4.6
- Drug level in Retina ([1]; 3 hr): 1.8
- Drug level in Sclera ([1]; 3 hr): 2.5
- Drug level in Vitreous ([1]; 3 hr): 0.5
SMILES: CC1=C(CC(=O)N2CCN(CCNS(C)(=O)=O)CC2)c2cc(F)ccc2/C1=C\c1ccc([S+](C)[O-])cc1 (stereo not drawn) [Compound 1]

SMILES: CCOP(=O)(NCCN1CCN(C(=O)CC2=C(C)/C(=C/c3ccc([S+](C)[O-])cc3)c3ccc(F)cc32)CC1)OCC (stereo not drawn) [Compound 2]
- avascular area of the retina, percentage of the entire retina surface area (mean±SEM) ([2]; vehicle 16.8±1.1): 5.8±0.8%
- neovascular area of the retina, percentage of the entire retina surface area (mean±SEM) ([2]; vehicle 20.7±3.7): 9.9±2.2%
- IC50 (HCT116 colon cancer): 460 µM
- IC50 (RAW264 murine macrophage): 160 µM
- IC50 (AGS gastric cancer): 306 µM
- IC50 (A549 lung cancer): 400 µM
- level in aqueous humor ([3]; 1 minute exposure): 1.0 µM
- level in choroid ([3]; 1 minute exposure): 425.9 µM
- level in ciliary body ([3]; 1 minute exposure): 124.6 µM
- level in cornea ([3]; 1 minute exposure): 166.3 µM
- level in iris ([3]; 1 minute exposure): 43.1 µM
- level in retina ([3]; 1 minute exposure): 12.6 µM
- level in aqueous humor ([3]; 10 minutes exposure): 5.3 µM
- level in choroid ([3]; 10 minutes exposure): 273.5 µM
- level in ciliary body ([3]; 10 minutes exposure): 206.9 µM
- level in cornea ([3]; 10 minutes exposure): 512.6 µM
- level in iris ([3]; 10 minutes exposure): 10.3 µM
- level in retina ([3]; 10 minutes exposure): 46.6 µM
- IC50 (SKOV-3 ovarian cancer): 480 µM
- Drug level in Choroid ([1]; 2 hr): 5.3
- Drug level in Conjunctiva ([1]; 2 hr): 16.1
- Drug level in Cornea ([1]; 2 hr): 106.1
- Drug level in Iris ([1]; 2 hr): 9.9
- Drug level in Lens ([1]; 2 hr): 0.3
- Drug level in Retina ([1]; 2 hr): 4.1
- Drug level in Sclera ([1]; 2 hr): 50.7
- Drug level in Vitreous ([1]; 2 hr): 1.2
- Drug level in Choroid ([1]; 3 hr): 6.4
- Drug level in Conjunctiva ([1]; 3 hr): 13.5
- Drug level in Cornea ([1]; 3 hr): 46.0
- Drug level in Iris ([1]; 3 hr): 9.8
- Drug level in Lens ([1]; 3 hr): 4.0
- Drug level in Retina ([1]; 3 hr): 1.7
- Drug level in Sclera ([1]; 3 hr): 22.4

SMILES: N.N.[Cl][Pt][Cl] [cis-platinum, reference compound]
- growth of platinum-sensitive xenografts (A2780 xenografts): suppressed the growth
- growth of platinum-resistant xenografts (A2780cis xenografts): failed to significantly inhibit tumor growth

SMILES: O=P1(N(CCCl)CCCl)NCCCO1 (stereo not drawn) [cyclophosphamide, reference compound]
- inhibition of tumor growth compared to control (HEY-T30 xenografts): 23%

SMILES: CCOP(=O)(OCC)OCCCCOC(=O)CC1=C(C)/C(=C/c2ccc([S+](C)[O-])cc2)c2ccc(F)cc21 (stereo not drawn) [phosphosulindac, reference compound]
- suppression of palmitoylation of Ras [4]: not shared
